According to ChEMBL document CHEMBL1148354, “Dye-labeled benzodiazepines: development of small ligands for receptor binding studies using fluorescence correlation spectroscopy” (J Med Chem, 2004):
“And” between values parts separate entries of the source, which are not always exact repeats. Equal values may be shown once.

Assays:
[1] = target: T1, GABA-A receptor; anion channel (Rattus norvegicus) (UniProt O09028+P15431+P18506+P18508+P19969+P20236+P23574+P23576+P28471+P28473+P30191+P62813+P63079+P63138+Q91ZM7+Q9ES14); experiment: Non-specific binding to GABA-A benzodiazepine receptor of rat hippocampal neurons after co-incubation with 1 uM midazolam (range is 7-10%); assay type: tissue-based; settings: Hippocampus
[2] = target: GABA-A receptor; anion channel; experiment: Binding affinity for GABA-A benzodiazepine receptor of rat hippocampal neurons; assay type: tissue-based, Hippocampus
[3] = target: T1, GABA-A receptor; anion channel (Rattus norvegicus); experiment: Percent binding to GABA-A benzodiazepine receptor of rat hippocampal neurons at 2 nM; assay type: tissue-based; settings: Hippocampus
[4] = target: T1, GABA-A receptor; anion channel (Rattus norvegicus); experiment: Saturation binding for benzodiazepine receptor of rat hippocampal neurons; assay type: tissue-based; settings: Hippocampus

Binding [1]: 10% | Kd [2]: 97.2 nM and 9.9 nM | Binding [3]: 90% | Concentration [4]: 120 nM
SMILES: CC1N=c2c(cc3c(c2S(=O)(=O)O)Oc2c(cc4c(c2S(=O)(=O)O)NC(C)C4(C)C)C=3c2ccc(C(=O)NCCN3C(=O)CN=C(c4ccccc4F)c4cc(Cl)ccc43)cc2)C1(C)C (centres undefined)
